{"source": "patent US12533349B2", "about": "“Drug formulations for reservoir-based delivery” (Medtronic, Inc., priority 2020, dated 2026)", "assay_type_in_all_cases": "physicochemical", "key": {"[1]": {"assay": "Potential for chemical reaction between functional groups of drug and drug-contacting material", "settings": "drug-contacting material silicone", "description": "The presence of certain functional groups on the drug or components of the formulation and certain functional groups on drug formulation contacting materials of the reservoir-based delivery devices may result in concern for chemical reaction between one or more ingredients of the formulation and the drug formulation contacting materials.\nFor example, silyl ether groups which may be present on silicone drug formulation contacting materials may react with amine groups, phosphate groups, or carboxylate groups of ingredients of the drug formulation.\nIn the following, non-limiting example development of a bupivacaine formulation for use in a reservoir-based delivery device is shown. The drug delivery device for which compatibility was determined was Medtronic, Inc.'s SynchroMed® II implantable infusion device. The material of the component of the SynchroMed® II for which compatibility was tested was silicone. Bupivacaine may migrate into silicone without consideration of formulation.\nIn addition, it was determined that bupivacaine has a high risk of potential for chemical reaction between functional groups in bupivacaine and the functional groups in the drug-contacting material."}, "[2]": {"assay": "Hansen Solubility Parameters (HSP) determination", "settings": "Hansen Solubility Parameter", "description": "(§1) Without intending to be bound by theory, it is believed that HSP provides a thermodynamic indication of whether a compound will migrate into a component of the reservoir-based delivery device, such as a polymeric component of the reservoir-based delivery device. Greater differences between HSPs of the compound and the component tend to result in lower amounts of migration.\nFor purposes of the present disclosure, differential HSP values of less than 7 are considered to be of high risk, HSP values between 7 and 10 are considered to be of medium risk, and HSP values of greater than 10 are considered to be of low risk for the drug to migrate into the component of the reservoir-based delivery device. Differential HSP values may be determined as described in Kitak, et al. (2015), “Determination of Solubility Parameters of Ibuprofen and Ibuprofen Lysinate,” Molecules, 20:21549-21568. One useful measurement of differential HSP values is described in Equation (4) of Kitak, et al. on page 21550. Other useful measurements include Equations (5), (6), and (7) of Kitak, et al. on pages 21550-21551.\nThe HSP of bupivacaine and the drug contacting material (silicone) were determined."}, "[3]": {"assay": "Differential HSP between drug and drug-contacting material of SynchroMed II infusion device", "settings": "bupivacaine vs drug-contacting material (silicone); less than 7 is considered high risk of migration", "description": "as §1\nFor purposes of the present disclosure, differential HSP values of less than 7 are considered to be of high risk, HSP values between 7 and 10 are considered to be of medium risk, and HSP values of greater than 10 are considered to be of low risk for the drug to migrate into the component of the reservoir-based delivery device. Differential HSP values may be determined as described in Kitak, et al. (2015), “Determination of Solubility Parameters of Ibuprofen and Ibuprofen Lysinate,” Molecules, 20:21549-21568. […]\nIn the following, non-limiting example development of a bupivacaine formulation for use in a reservoir-based delivery device is shown. The drug delivery device for which compatibility was determined was Medtronic, Inc.'s SynchroMed® II implantable infusion device. […]\nThe differential HSP value was determined to be 4.2, which is considered to be high risk of the drug migrating into the drug-contacting material."}}}
{"smiles": "CCCCN1CCCCC1C(=O)Nc1c(C)cccc1C", "note": "(centres unmarked) [bupivacaine]", "values": [{"measurement": "risk of potential for chemical reaction between functional groups in bupivacaine and in the drug-contacting material", "setting": "[1]", "result": "high risk"}, {"measurement": "HSP δD", "setting": "[2]; δD component", "result": 18.1}, {"measurement": "HSP δH", "setting": "[2]; δH component", "result": 6.03}, {"measurement": "HSP δP", "setting": "[2]; δP component", "result": 6.46}, {"measurement": "differential HSP value", "setting": "[3]", "result": 4.2}]}
